In PubChem BioAssay (NCI):
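At the GI50, growth is halved. TGI: concentration producing complete growth inhibition.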

How the values were obtained:
Experiment in all cases: DTP human tumour cell line panel, 384-well format
786-0 renal = system: 786-0 renal
A498 renal = system: A498 renal
A549 NSCLC = system: A549 NSCLC
ACHN renal = system: ACHN renal
BT-549 breast = system: BT-549 breast
CAKI-1 renal = system: CAKI-1 renal
CCRF-CEM leukemia = system: CCRF-CEM leukemia
COLO 205 colon = system: COLO 205 colon
DU-145 prostate = system: DU-145 prostate
EKVX NSCLC = system: EKVX NSCLC
HCC-2998 colon = system: HCC-2998 colon
HCT-116 colon = system: HCT-116 colon
HCT-15 colon = system: HCT-15 colon
HL-60(TB) leukemia = system: HL-60(TB) leukemia
HOP-62 NSCLC = system: HOP-62 NSCLC
HOP-92 NSCLC = system: HOP-92 NSCLC
HS 578T breast = system: HS 578T breast
HT29 colon = system: HT29 colon
IGROV1 ovarian = system: IGROV1 ovarian
K-562 leukemia = system: K-562 leukemia
KM12 colon = system: KM12 colon
LOX IMVI melanoma = system: LOX IMVI melanoma
M14 melanoma = system: M14 melanoma
MALME-3M melanoma = system: MALME-3M melanoma
MCF7 breast = system: MCF7 breast
MDA-MB-231 breast = system: MDA-MB-231 breast
MDA-MB-435 melanoma = system: MDA-MB-435 melanoma
MDA-MB-468 breast = system: MDA-MB-468 breast
MOLT-4 leukemia = system: MOLT-4 leukemia
NCI-H226 lung = system: NCI-H226 lung
NCI-H23 lung = system: NCI-H23 lung
NCI-H322M lung = system: NCI-H322M lung
NCI-H460 NSCLC = system: NCI-H460 NSCLC
NCI-H522 lung = system: NCI-H522 lung
NCI/ADR-RES ovarian = system: NCI/ADR-RES ovarian
OVCAR-3 ovarian = system: OVCAR-3 ovarian
OVCAR-4 ovarian = system: OVCAR-4 ovarian
OVCAR-5 ovarian = system: OVCAR-5 ovarian
OVCAR-8 ovarian = system: OVCAR-8 ovarian
PC-3 prostate = system: PC-3 prostate
RPMI-8226 leukemia = system: RPMI-8226 leukemia
RXF 393 renal = system: RXF 393 renal
SF-268 CNS = system: SF-268 CNS
SF-295 CNS = system: SF-295 CNS
SF-539 CNS = system: SF-539 CNS
SK-MEL-2 melanoma = system: SK-MEL-2 melanoma
SK-MEL-28 melanoma = system: SK-MEL-28 melanoma
SK-MEL-5 melanoma = system: SK-MEL-5 melanoma
SK-OV-3 ovarian = system: SK-OV-3 ovarian
SN12C renal = system: SN12C renal
SNB-19 CNS = system: SNB-19 CNS
SNB-75 CNS = system: SNB-75 CNS
SW-620 colon = system: SW-620 colon
T-47D breast = system: T-47D breast
TK-10 renal = system: TK-10 renal
U251 glioblastoma = system: U251 glioblastoma
UACC-62 melanoma = system: UACC-62 melanoma
UO-31 renal = system: UO-31 renal

`Cn1nccc1Nc1nccc(-c2cc3c(s2)C(C)(C)N(CCN2CCOCC2)C3=O)n1` showed a GI50 ([…]-0 renal) of 90.9 µM, a TGI (786-0 renal) greater than 100 µM and a GI50 (A498 renal) of 5.15 µM. For the same compound, the TGI (A498 renal) was greater than 100 µM, the GI50 (A549 NSCLC) was 2.45 µM and the TGI (A549 NSCLC) was greater than 100 µM. For the same compound, the GI50 (ACHN renal) was 16.9 µM, the TGI (ACHN renal) was greater than 100 µM and the GI50 (BT-549 breast) was 13.8 µM. It also gave a TGI (BT-549 breast) greater than 100 µM, a GI50 (CAKI-1 renal) of 3.31 µM and a TGI (CAKI-1 renal) greater than 100 µM. The GI50 (CCRF-CEM leukemia) was 34.2 µM, the TGI (CCRF-CEM leukemia) was greater than 100 µM and the GI50 (COLO 205 colon) was 0.194 µM. For the same compound, the TGI (COLO 205 colon) was 5.35 µM, the GI50 (DU-145 prostate) was 23.6 µM and the TGI (DU-145 prostate) was greater than 100 µM. It also gave a GI50 (EKVX NSCLC) greater than 100 µM, a TGI (EKVX NSCLC) greater than 100 µM and a GI50 (HCC-2998 colon) of 0.308 µM. It also gave a TGI (HCC-2998 colon) of 17.1 µM, a GI50 (HCT-116 colon) of 0.404 µM and a TGI (HCT-116 colon) greater than 100 µM. It also gave a GI50 (HCT-15 colon) of 23.1 µM, a TGI (HCT-15 colon) greater than 100 µM and a GI50 (HL-60(TB) leukemia) of 0.264 µM. For the same compound, the TGI (HL-60(TB) leukemia) was 10.1 µM, the GI50 (HOP-62 NSCLC) was 8.17 µM and the TGI (HOP-62 NSCLC) was greater than 100 µM. The GI50 (HOP-92 NSCLC) was 4.27 µM, the TGI (HOP-92 NSCLC) was greater than 100 µM and the GI50 (HS 578T breast) was 49.4 µM. For the same compound, the TGI (HS 578T breast) was greater than 100 µM, the GI50 (HT29 colon) was 0.618 µM and the TGI (HT29 colon) was greater than 100 µM. For the same compound, the GI50 (IGROV1 ovarian) was 3.52 µM, the TGI (IGROV1 ovarian) was greater than 100 µM and the GI50 (K-562 leukemia) was 4.74 µM. The TGI (K-562 leukemia) was greater than 100 µM, the GI50 (KM12 colon) was 1.69 µM and the TGI (KM12 colon) was greater than 100 µM. The GI50 (LOX IMVI melanoma) was 0.345 µM, the TGI (LOX IMVI melanoma) was 1.55 µM and the GI50 (M14 melanoma) was 0.157 µM. For the same compound, the TGI (M14 melanoma) was 0.905 µM, the GI50 (MALME-3M melanoma) was 0.0557 µM and the TGI (MALME-3M melanoma) was 0.296 µM. It also gave a GI50 (MCF7 breast) of 21.2 µM, a TGI (MCF7 breast) greater than 100 µM and a GI50 (MDA-MB-231 breast) of 3.5 µM. The TGI (MDA-MB-231 breast) was greater than 100 µM, the GI50 (MDA-MB-435 melanoma) was 0.402 µM and the TGI (MDA-MB-435 melanoma) was 50.9 µM. It also gave a GI50 (MDA-MB-468 breast) of 19.3 µM, a TGI (MDA-MB-468 breast) of 89 µM and a GI50 (MOLT-4 leukemia) of 46 µM. For the same compound, the TGI (MOLT-4 leukemia) was greater than 100 µM, the GI50 (NCI-H226 lung) was 14.2 µM and the TGI (NCI-H226 lung) was greater than 100 µM. The GI50 (NCI-H23 lung) was 0.301 µM, the TGI (NCI-H23 lung) was 9.1 µM and the GI50 (NCI-H322M lung) was 7.59 µM. It also gave a TGI (NCI-H322M lung) greater than 100 µM, a GI50 (NCI-H460 NSCLC) of 4.26 µM and a TGI (NCI-H460 NSCLC) greater than 100 µM. For the same compound, the GI50 (NCI-H522 lung) was 1.65 µM, the TGI (NCI-H522 lung) was 20.8 µM and the GI50 (NCI/ADR-RES ovarian) was greater than 100 µM. The TGI (NCI/ADR-RES ovarian) was greater than 100 µM, the GI50 (OVCAR-3 ovarian) was 51.4 µM and the TGI (OVCAR-3 ovarian) was greater than 100 µM. It also gave a GI50 (OVCAR-4 ovarian) greater than 100 µM, a TGI (OVCAR-4 ovarian) greater than 100 µM and a GI50 (OVCAR-5 ovarian) of 0.989 µM. It also gave a TGI (OVCAR-5 ovarian) greater than 100 µM, a GI50 (OVCAR-8 ovarian) of 34.8 µM and a TGI (OVCAR-8 ovarian) greater than 100 µM. For the same compound, the GI50 (PC-3 prostate) was 55.4 µM, the TGI (PC-3 prostate) was greater than 100 µM and the GI50 (RPMI-8226 leukemia) was 2.23 µM. The TGI (RPMI-8226 leukemia) was 8.87 µM, the GI50 (RXF 393 renal) was greater than 100 µM and the TGI (RXF 393 renal) was greater than 100 µM. It also gave a GI50 (SF-268 CNS) of 50.9 µM, a TGI (SF-268 CNS) greater than 100 µM and a GI50 (SF-295 CNS) greater than 100 µM. It also gave a TGI (SF-295 CNS) greater than 100 µM, a GI50 (SF-539 CNS) of 28.2 µM and a TGI (SF-539 CNS) greater than 100 µM. For the same compound, the GI50 (SK-MEL-2 melanoma) was 0.372 µM, the TGI (SK-MEL-2 melanoma) was 1.45 µM and the GI50 (SK-MEL-28 melanoma) was 0.177 µM. The TGI (SK-MEL-28 melanoma) was 0.797 µM, the GI50 (SK-MEL-5 melanoma) was 0.619 µM and the TGI (SK-MEL-5 melanoma) was greater than 100 µM. For the same compound, the GI50 (SK-OV-3 ovarian) was 25.2 µM, the TGI (SK-OV-3 ovarian) was greater than 100 µM and the GI50 (SN12C renal) was 39.2 µM. It also gave a TGI (SN12C renal) greater than 100 µM, a GI50 (SNB-19 CNS) of 64.7 µM and a TGI (SNB-19 CNS) greater than 100 µM. It also gave a GI50 (SNB-75 CNS) greater than 100 µM, a TGI (SNB-75 CNS) greater than 100 µM and a GI50 (SW-620 colon) of 0.756 µM. The TGI (SW-620 colon) was greater than 100 µM, the GI50 (T-47D breast) was greater than 100 µM and the TGI (T-47D breast) was greater than 100 µM. It also gave a GI50 (TK-10 renal) of 3.46 µM, a TGI (TK-10 renal) greater than 100 µM and a GI50 (U251 glioblastoma) of 25.9 µM. The TGI (U251 glioblastoma) was greater than 100 µM, the GI50 (UACC-62 melanoma) was 0.138 µM and the TGI (UACC-62 melanoma) was 1.76 µM. The GI50 (UO-31 renal) was 9.2 µM and the TGI (UO-31 renal) was greater than 100 µM.
